{
  "source": "patent US12351653B1",
  "about": "“Pharmaceutical compositions comprising novel cyclic peptides” (LISATA THERAPEUTICS, INC., priority 2019, dated 2025)",
  "key": {"[1]": {"tested_on": "metastatic pancreatic cancer", "experiment": "Phase I trial (CEND-001) of CEND-1 with gemcitabine and nab-paclitaxel: response and survival", "format": "in vivo, human", "experimental": "(§1) Patients will first receive the intravenous infusion of nabpaclitaxel (125 mg/m^2 over 30 minutes (±3 minutes)).\n(§2) Patients (n=31) who had measurable metastatic pancreatic cancer, no prior treatments for metastatic disease and an ECOG PS of 0 to 1 were included. Primary endpoints are safety and optimal biologic dose, secondary and exploratory endpoints included response rates, pharmacokinetics and biomarkers."}, "CA19-9": {"tested_on": "CA19-9", "experiment": "Phase I trial (CEND-001): tumor biomarker CA19-9", "format": "in vivo, human", "details": "with nab-paclitaxel and gemcitabine", "experimental": "as §1, §2\nOf these, 23 patients had at least one on-treatment CA19-9 measurement."}, "[2]": {"details": "with nab-paclitaxel and gemcitabine"}, "[3]": {"details": "with nab-paclitaxel and gemcitabine, RECIST 1.1, 29 evaluable patients"}, "[4]": {"details": "patients with elevated baseline CA19-9 and a postbaseline assessment (23)"}},
  "data": [
    {"substance": "Ac-Cys-Arg-Gly-Asp-Lys-Gly-Pro-Asp-Cys-NH2 (Cys & Cys Bridge) [CEND-1]", "values": [
      {"measurement": "Complete response", "setting": "[1]; with nab-paclitaxel 125 mg/m^2 and gemcitabine 1000 mg/m^2, investigator assessed RECIST 1.1, 29 evaluable patients", "value": 3.4, "unit": "%"},
      {"measurement": "Median time to progression", "setting": "[1]; [2]", "value": "approximately 9.7 months"},
      {"measurement": "Response rates relative to the benchmark trials", "setting": "[1]; [2]", "value": "> 2", "unit": "times"},
      {"measurement": "Patients with progression", "setting": "[1]; with nab-paclitaxel and gemcitabine, 16/29 patients", "value": 55.2, "unit": "%"},
      {"measurement": "Confirmed objective responses (OR)", "setting": "[1]; with nab-paclitaxel and gemcitabine, 17/29 patients (95% CI=38.9, 76.5)", "value": 58.6, "unit": "%"},
      {"measurement": "Partial response", "setting": "[1]; [3]", "value": 55, "unit": "%"},
      {"measurement": "Progressive disease", "setting": "[1]; [3]", "value": 6.9, "unit": "%"},
      {"measurement": "Stable disease", "setting": "[1]; [3]", "value": 34, "unit": "%"},
      {"measurement": "Overall response rate (ORR)", "setting": "[1]; with nab-paclitaxel and gemcitabine, all evaluable patients (N=29)", "value": 59, "unit": "%"},
      {"measurement": "Median (IQR) PFS", "setting": "[1]; with nab-paclitaxel and gemcitabine, at study closure", "value": 9.7, "unit": "months"},
      {"measurement": "Overall disease control rate for 16 weeks", "setting": "[1]; with nab-paclitaxel and gemcitabine, evaluable patients (N=29)", "value": 79, "unit": "%"},
      {"measurement": "Patients with a ≥50% reduction in CA19-9 from Baseline", "setting": "CA19-9; Cycle 5 Day 1, 20/22 patients", "value": 90.9, "unit": "%"},
      {"measurement": "Patients with CA19-9 decrease from baseline of at least 20%", "setting": "CA19-9; [4]", "value": 96, "unit": "%"},
      {"measurement": "Patients with CA19-9 decrease of at least 90% and/or CA19-9 levels normalized", "setting": "CA19-9; [4]", "value": 74, "unit": "%"}
    ]}
  ]
}
